According to patent publication US6914045B2, “Glycopeptide antibiotics” (Wyeth Holdings Corporation, priority 2001, dated 2005):
Values after ≈ are worked out from the molar mass of the structure shown.

Assays:
Experiment in all cases: in vitro antibacterial evaluation, MIC by broth dilution
Assay type in all cases: cell-based
Enterococcus sp. = conditions: broth dilution, 18 hours at 35° C.
Outline: (§1)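 Inoculum 5×10^5 CFU/mL; concentrations 64 to 0.06 μg/mL; MIC defined as lowest inhibitory level. Conducted by broth dilution under NCCLS guidelines.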

Streptococcus sp. = conditions: broth dilution, 18 hours at 35° C.
Outline: as §1

Staphylococcus sp. = conditions: broth dilution, 18 hours at 35° C.
Outline: as §1

Escherichia coli = conditions: 18 hours at 35° C.

CC(c1ccccc1)C1NC(=O)CNC(=O)C(CO)NC(=O)C(C(O)C2CNC(=N)N2C2OC(CO)C(O)C3OC(C)(C)OC32)NC(=O)C(C(O)C2CNC(=N)N2)NC(=O)C(Cc2ccc(OC3OC(CO)C(OC4OC(CO)C(O)C5OC(C)(C)OC45)C4OC(C)(C)OC34)cc2)NC1=O (stereo not shown) [Example 229a]
MIC Enterococcus avium (GC 4558) (Enterococcus sp.): 128 mg/L (≈ 90.4 µM) | MIC Enterococcus faecalis (ATCC 29212) (Enterococcus sp.): >128 mg/L | MIC Enterococcus faecalis (GC 2242) (Enterococcus sp.): >128 mg/L | MIC Enterococcus faecalis (GC 2691) (Enterococcus sp.): >128 mg/L | MIC Enterococcus faecalis (GC 3059) (Enterococcus sp.): >128 mg/L | MIC Enterococcus faecalis (GC 4552) (Enterococcus sp.): >128 mg/L | MIC Enterococcus faecalis (GC 4553) (Enterococcus sp.): >128 mg/L | MIC Enterococcus faecalis (GC 4554) (Enterococcus sp.): >128 mg/L | MIC Enterococcus faecalis (GC 6189) (Enterococcus sp.): >128 mg/L | MIC Enterococcus faecium (GC 2243) (Enterococcus sp.): >128 mg/L | MIC Enterococcus faecium (GC 4556) (Enterococcus sp.): >128 mg/L | MIC Enterococcus faecium (GC 4557) (Enterococcus sp.): >128 mg/L | MIC Enterococcus faecalis (ATCC 29212) (Enterococcus sp.; inoculum 5×10^5 CFU/mL, strain ATCC 29212): >128 mg/L | MIC Enterococcus faecalis (GC 2242) (Enterococcus sp.; inoculum 5×10^5 CFU/mL, strain GC 2242): >128 mg/L | MIC Enterococcus faecium (GC 2243) (Enterococcus sp.; inoculum 5×10^5 CFU/mL, strain GC 2243): >128 mg/L | MIC Enterococcus faecalis (GC 2691) (Enterococcus sp.; inoculum 5×10^5 CFU/mL, strain GC 2691): >128 mg/L | MIC Enterococcus faecalis (GC 3059) (Enterococcus sp.; inoculum 5×10^5 CFU/mL, strain GC 3059): >128 mg/L | MIC Enterococcus faecalis (GC 4552) (Enterococcus sp.; inoculum 5×10^5 CFU/mL, strain GC 4552): >128 mg/L | MIC Enterococcus faecalis (GC 4553) (Enterococcus sp.; inoculum 5×10^5 CFU/mL, strain GC 4553): >128 mg/L | MIC Enterococcus faecalis (GC 4554) (Enterococcus sp.; inoculum 5×10^5 CFU/mL, strain GC 4554): >128 mg/L | MIC Enterococcus faecium (GC 4556) (Enterococcus sp.; inoculum 5×10^5 CFU/mL, strain GC 4556): >128 mg/L | MIC Enterococcus faecium (GC 4557) (Enterococcus sp.; inoculum 5×10^5 CFU/mL, strain GC 4557): >128 mg/L | MIC Enterococcus avium (GC 4558) (Enterococcus sp.; inoculum 5×10^5 CFU/mL, strain GC 4558): 128 mg/L (≈ 90.4 µM) | MIC Enterococcus faecalis (GC 6189) (Enterococcus sp.; inoculum 5×10^5 CFU/mL, strain GC 6189): >128 mg/L | MIC Streptococcus agalactiae (GC 4564) (Streptococcus sp.): >128 mg/L | MIC Streptococcus pneumoniae (ATCC 6301) (Streptococcus sp.): >128 mg/L | MIC Streptococcus pneumoniae (GC 1894) (Streptococcus sp.): >128 mg/L | MIC Streptococcus pneumoniae (GC 4565) (Streptococcus sp.): >128 mg/L | MIC Streptococcus pyogenes (GC 4563) (Streptococcus sp.): >128 mg/L | MIC Streptococcus pneumoniae (ATCC 6301) (Streptococcus sp.; inoculum 5×10^5 CFU/mL, strain ATCC 6301): >128 mg/L | MIC Streptococcus pneumoniae (GC 1894) (Streptococcus sp.; inoculum 5×10^5 CFU/mL, strain GC 1894): >128 mg/L | MIC Streptococcus pyogenes (GC 4563) (Streptococcus sp.; inoculum 5×10^5 CFU/mL, strain GC 4563): >128 mg/L | MIC Streptococcus agalactiae (GC 4564) (Streptococcus sp.; inoculum 5×10^5 CFU/mL, strain GC 4564): >128 mg/L | MIC Streptococcus pneumoniae (GC 4565) (Streptococcus sp.; inoculum 5×10^5 CFU/mL, strain GC 4565): >128 mg/L | MIC Coagulase Negative Staphylococcus (GC 4547) (Staphylococcus sp.): >128 mg/L | MIC Coagulase Negative Staphylococcus (GC 4548) (Staphylococcus sp.): >128 mg/L | MIC Coagulase Negative Staphylococcus (GC 4549) (Staphylococcus sp.): >128 mg/L | MIC Coagulase Negative Staphylococcus (GC 4551) (Staphylococcus sp.): >128 mg/L | MIC Coagulase Negative Staphylococcus (GC 6257) (Staphylococcus sp.): >128 mg/L | MIC Staphylococcus aureus (ATCC 29213) (Staphylococcus sp.): >128 mg/L | MIC Staphylococcus aureus (GC 1131) (Staphylococcus sp.): >128 mg/L | MIC Staphylococcus aureus (GC 3051) (Staphylococcus sp.): >128 mg/L | MIC Staphylococcus aureus (GC 3053) (Staphylococcus sp.): >128 mg/L | MIC Staphylococcus aureus (GC 4541) (Staphylococcus sp.): >128 mg/L | MIC Staphylococcus aureus (GC 4542) (Staphylococcus sp.): >128 mg/L | MIC Staphylococcus aureus (GC 4544) (Staphylococcus sp.): >128 mg/L | MIC Staphylococcus aureus (GC 4545) (Staphylococcus sp.): >128 mg/L | MIC Staphylococcus aureus-SMITH (GC 4543) (Staphylococcus sp.): >128 mg/L | MIC Staphylococcus haemolyticus (GC 4546) (Staphylococcus sp.): >128 mg/L | MIC Staphylococcus aureus (ATCC 29213) (Staphylococcus sp.; strain ATCC 29213): >128 mg/L | MIC Staphylococcus aureus (GC 1131) (Staphylococcus sp.; strain GC 1131): >128 mg/L | MIC Staphylococcus aureus (GC 3051) (Staphylococcus sp.; strain GC 3051): >128 mg/L | MIC Staphylococcus aureus (GC 3053) (Staphylococcus sp.; strain GC 3053): >128 mg/L | MIC Staphylococcus aureus (GC 4541) (Staphylococcus sp.; strain GC 4541): >128 mg/L | MIC Staphylococcus aureus (GC 4542) (Staphylococcus sp.; strain GC 4542): >128 mg/L | MIC Staphylococcus aureus-SMITH (GC 4543) (Staphylococcus sp.; strain GC 4543): >128 mg/L | MIC Staphylococcus aureus (GC 4544) (Staphylococcus sp.; strain GC 4544): >128 mg/L | MIC Staphylococcus aureus (GC 4545) (Staphylococcus sp.; strain GC 4545): >128 mg/L | MIC Staphylococcus haemolyticus (GC 4546) (Staphylococcus sp.; strain GC 4546): >128 mg/L | MIC Coagulase Negative Staphylococcus (GC 4547) (Staphylococcus sp.; strain GC 4547): >128 mg/L | MIC Coagulase Negative Staphylococcus (GC 4548) (Staphylococcus sp.; strain GC 4548): >128 mg/L | MIC Coagulase Negative Staphylococcus (GC 4549) (Staphylococcus sp.; strain GC 4549): >128 mg/L | MIC Coagulase Negative Staphylococcus (GC 4551) (Staphylococcus sp.; strain GC 4551): >128 mg/L | MIC Coagulase Negative Staphylococcus (GC 6257) (Staphylococcus sp.; strain GC 6257): >128 mg/L | MIC Escherichia coli (ATCC 25922) (Escherichia coli): >128 mg/L | MIC Escherichia coli (GC 4559) (Escherichia coli): >128 mg/L | MIC Escherichia coli (GC 4560) (Escherichia coli): >128 mg/L
